These results are taken from paper PMC9667784, “Synthesis, biological evaluation and computational studies of pyrazole derivatives as Mycobacterium tuberculosis CYP121A1 inhibitors” (RSC Medicinal Chemistry, 2022).

≈ marks a conversion by molar mass, not a printed value. Where “and” joins values, the source holds several entries; their conditions need not be identical. Equal values may be shown once. Read-outs that look alike come from different tables or passages of the source.

The target of one series is T1, Mtb CYP121A1 (Mycobacterium tuberculosis, UniProt P9WPP7).
T1 construct: made in house
In words: biochemical. The series is classed as binding. As to conditions: for Kd: 1 μM protein, 0 to 150 μM compound, plate reader, triplicate; for Soret shift: UV-vis absorbance, Soret band shift on ligand binding; for Spectral response in the UV-vis assay: compared with the imidazole derivatives.

Series [1] has as its system Mtb H37Rv. In words: microbe, parasite or virus in culture. Type of series: cell-based. As to conditions: Mycobacterium tuberculosis.
Another series addresses CYP121A1. As to conditions: lead diarylpyrazole derivatives, Fig. 2; cited from earlier work.
A further series has as its system Mtb. Also noted: method as in PMID 31367508. As to conditions: lead diarylpyrazole derivatives, Fig. 2; cited from earlier work.
Series [2] relates to Mtb H37Rv. Also on record: method as in PMID 29185746. As to conditions: previously prepared methoxy derivatives; cited from earlier work.
Where [3] appears, read: Mtb H37Rv, SPOTi, five weeks at 37 °C, average of two independent experiments, read-out: MIC90.

T1 sequence (P9WPP7 whole entry): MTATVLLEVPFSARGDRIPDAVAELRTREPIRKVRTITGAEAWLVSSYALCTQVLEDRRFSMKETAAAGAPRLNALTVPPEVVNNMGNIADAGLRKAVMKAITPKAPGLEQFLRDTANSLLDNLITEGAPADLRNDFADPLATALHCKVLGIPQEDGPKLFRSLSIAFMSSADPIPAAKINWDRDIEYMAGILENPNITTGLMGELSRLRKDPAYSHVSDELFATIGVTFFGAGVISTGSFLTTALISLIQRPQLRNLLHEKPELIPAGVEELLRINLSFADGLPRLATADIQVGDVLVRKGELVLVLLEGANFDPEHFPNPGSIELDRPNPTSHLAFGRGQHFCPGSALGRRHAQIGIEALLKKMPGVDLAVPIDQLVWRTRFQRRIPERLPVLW

The molecule `CC(C)Oc1ccc(-c2nn(-c3ccc(F)cc3)cc2Cn2ccnc2)cc1` [11g, 4-((1H-Imidazol-1-yl)methyl)-1-(4-fluorophenyl)-3-(4-isopropoxyphenyl)-1H-pyrazole] returned a melting point of 96 to 98 °C. Besides, on Mtb CYP121A1, the dissociation constant (Kd) was 38.5 ± 8.7 µM and the Soret shift fell in the range of 417 to 419 nm. In addition, the MIC90 in the series with Mtb H37Rv [1] (setting [3]) was 4.3 µg/mL and 11.4 µM.

As for `NNC(=O)c1ccncc1` [Isoniazid, reference compound], the MIC90 with Mtb H37Rv [1] (setting [3]) was 0.2 µg/mL and 1.8 µM.

`CCCOc1ccc(-c2nn(-c3ccc(F)cc3)cc2Cn2cncn2)cc1` [12e, 1-((1-(4-Fluorophenyl)-3-(4-propoxyphenyl)-1H-pyrazol-4-yl)methyl)-1H-1,2,4-triazole] displayed a melting point of 120 to 122 °C. The MIC90 with Mtb H37Rv [1] (setting [3]) is 20.9 µg/mL and 55.5 µM.

Take `CCCOc1ccc(-c2nn(-c3ccc(Cl)cc3)cc2Cn2cncn2)cc1` [12f, 1-((1-(4-Chlorophenyl)-3-(4-propoxyphenyl)-1H-pyrazol-4-yl)methyl)-1H-1,2,4-triazole]: the melting point was 114 to 116 °C. The MIC90 in the series on Mtb H37Rv [1] (setting [3]) was 6.4 µg/mL and 16.2 µM.

`CCCOc1ccc(-c2nn(-c3ccc(Cl)cc3)cc2Cn2ccnc2)cc1` [11f, 4-((1H-Imidazol-1-yl)methyl)-1-(4-chlorophenyl)-3-(4-propoxyphenyl)-1H-pyrazole]: the melting point lay within 90 to 92 °C. On Mtb CYP121A1, the Kd is 11.7 µM and the Soret shift lay within 417 to 419 nm. For the same molecule, on Mtb CYP121A1 (UV-vis binding difference spectra), the “Binding type from difference spectra (type I / type II)” value is “type II”. Besides, the MIC90 in the series with Mtb H37Rv [1] (setting [3]) is 4 µg/mL and 10.1 µM.

In the case of `NC[C@H]1O[C@H](O[C@H]2[C@H](O)[C@@H](O[C@H]3O[C@H](CO)[C@@H](O)[C@H](N)[C@H]3O)[C@H](N)C[C@@H]2N)[C@H](O)[C@@H](O)[C@@H]1O` [Kanamycin, reference compound], the MIC90 in the series on Mtb H37Rv [1] is 7.8 µg/mL and 16.1 µM.

Take `CCCc1ccc(-c2nn(-c3ccccc3)cc2Cn2ccnc2)cc1` [R = Pr]: the Kd on CYP121A1 was 53.7 ± 5.9 µM. Further, the minimum inhibitory concentration (MIC) in the series with Mtb is 0.78 µg/mL and 0.781 µg/mL.

In turn, `CCOc1ccc(-c2nn(-c3ccc(Cl)cc3)cc2Cn2cncn2)cc1` [12d, 1-((1-(4-Chlorophenyl)-3-(4-ethoxyphenyl)-1H-pyrazol-4-yl)methyl)-1H-1,2,4-triazole] came in with a melting point of 122 to 124 °C. In addition, the “Spectral response in the UV-vis assay” value at Mtb CYP121A1 is recorded as “weak spectral response”. Further, the MIC90 in the series with Mtb H37Rv [1] (setting [3]) was 6.4 µg/mL and 16.8 µM.

Consider `CC(C)Oc1ccc(-c2nn(-c3ccc(Cl)cc3)cc2Cn2cncn2)cc1` [12h, 1-((1-(4-Chlorophenyl)-3-(4-isopropoxyphenyl)-1H-pyrazol-4-yl)methyl)-1H-1,2,4-triazole], for which the melting point was in the range of 98 to 100 °C. In addition, in the series with Mtb H37Rv [1] (setting [3]), the MIC90 is 25.6 µg/mL and 65.1 µM.

In the case of `CO[C@H]1/C=C/O[C@@]2(C)Oc3c(C)c(O)c4c(O)c(c(/C=N/N5CCN(C)CC5)c(O)c4c3C2=O)NC(=O)/C(C)=C\C=C\[C@H](C)[C@H](O)[C@@H](C)[C@@H](O)[C@@H](C)[C@H](OC(C)=O)[C@@H]1C` [Rifampicin, reference compound], the MIC90 in the series with Mtb H37Rv [1] (setting [3]) is 0.2 µg/mL and 0.3 µM.

`COc1ccc(-c2nn(-c3ccc(Cl)cc3)cc2Cn2ccnc2)cc1` [11b, 4-((1H-Imidazol-1-yl)methyl)-1-(4-chlorophenyl)-3-(4-methoxyphenyl)-1H-pyrazole] gave a melting point of 136 to 138 °C. In addition, the MIC90 in the series with Mtb H37Rv [1] (setting [3]) is 6 µg/mL and 16.5 µM.

In turn, `CCCOc1ccc(-c2nn(-c3ccc(F)cc3)cc2Cn2ccnc2)cc1` [11e, 4-((1H-Imidazol-1-yl)methyl)-1-(4-fluorophenyl)-3-(4-propoxyphenyl)-1H-pyrazole] displayed a melting point of 120 to 122 °C. For the same molecule, at Mtb CYP121A1, the Kd is 22.3 ± 4.2 µM and the Soret shift was 417 to 420 nm. Besides, the MIC90 in the series on Mtb H37Rv [1] (setting [3]) is 6 µg/mL and 15.9 µM.

Take `COc1ccc(-c2nn(-c3ccc(Cl)cc3)cc2Cn2cncn2)cc1` [12b, 1-((1-(4-Chlorophenyl)-3-(4-methoxyphenyl)-1H-pyrazol-4-yl)methyl)-1H-1,2,4-triazole]: the melting point was in the range of 124 to 126 °C. Besides, at Mtb CYP121A1, the Kd was 5.13 µM and 5.1 µM; the Soret shift was 417 to 417 nm; the “Spectral response in the UV-vis assay” value was “weak spectral response”. The MIC90 with Mtb H37Rv [1] (setting [3]) is 4.4 µg/mL and 11.9 µM.

The molecule `CCOc1ccc(-c2nn(-c3ccc(F)cc3)cc2Cn2ccnc2)cc1` [11c, 4-((1H-Imidazol-1-yl)methyl)-3-(4-ethoxyphenyl)-1-(4-fluorophenyl)-1H-pyrazole] had a melting point of 118 to 120 °C. For the same molecule, on Mtb CYP121A1, the affinity, expressed as Kd, was 54 ± 5.2 µM and the Soret shift is given as 417 to 422 nm. In the series with Mtb H37Rv [1] (setting [3]), the MIC90 was 12 µg/mL and 33.2 µM.

Turning to `CCc1ccc(-c2nn(-c3ccccc3)cc2Cn2ccnc2)cc1` [R = Et], the equilibrium dissociation constant (Kd) at CYP121A1 was 18.3 ± 3.4 µM. In addition, the MIC with Mtb was 1.562 µg/mL (≈ 4.76 µM).

In the case of `CC(C)Oc1ccc(-c2nn(-c3ccc(F)cc3)cc2Cn2cncn2)cc1` [12g, 1-((1-(4-Fluorophenyl)-3-(4-isopropoxyphenyl)-1H-pyrazol-4-yl)methyl)-1H-1,2,4-triazole], the melting point is 118 to 120 °C. For the same molecule, in the series on Mtb H37Rv [1] (setting [3]), the MIC90 is 20.9 µg/mL and 55.5 µM.

`CC(C)Oc1ccc(-c2nn(-c3ccc(Cl)cc3)cc2Cn2ccnc2)cc1` [11h, 4-((1H-Imidazol-1-yl)methyl)-1-(4-chlorophenyl)-3-(4-isopropoxyphenyl)-1H-pyrazole]: the melting point fell in the range of 98 to 100 °C. Also, at Mtb CYP121A1, binding was characterised by a dissociation constant (Kd) of 17.7 µM and the Soret shift lay in the range of 417 to 419 nm. In addition, the MIC90 in the series on Mtb H37Rv [1] (setting [3]) was 4.4 µg/mL and 11.9 µM.

As to `CCOc1ccc(-c2nn(-c3ccc(F)cc3)cc2Cn2cncn2)cc1` [12c, 1-((3-(4-Ethoxyphenyl)-1-(4-fluorophenyl)-1H-pyrazol-4-yl)methyl)-1H-1,2,4-triazole], the melting point was 140 to 142 °C. For the same molecule, the MIC90 in the series with Mtb H37Rv [1] (setting [3]) is 25.6 µg/mL and 70.5 µM.

With `COc1ccc(-c2nn(-c3ccccc3)cc2Cn2ccnc2)cc1` [P1], the MIC90 in the series on Mtb H37Rv [2] was 25 µg/mL (≈ 75.7 µM).

`CCOc1ccc(-c2nn(-c3ccc(Cl)cc3)cc2Cn2ccnc2)cc1` [11d, 4-((1H-Imidazol-1-yl)methyl)-1-(4-chlorophenyl)-3-(4-ethoxyphenyl)-1H-pyrazole] came in with a melting point of 124 to 126 °C. Further, on Mtb CYP121A1, the Kd came to 18.8 ± 10.2 µM and the Soret shift lay within 417 to 420 nm. For the same molecule, the MIC90 in the series on Mtb H37Rv [1] (setting [3]) was 5 µg/mL and 13.3 µM.

`CC(C)c1ccc(-c2nn(-c3ccccc3)cc2Cn2ccnc2)cc1` [R = iPr]: at CYP121A1, the Kd was 22.5 ± 3.5 µM. The minimum inhibitory concentration (MIC) with Mtb is 1.562 µg/mL (≈ 4.56 µM).

Regarding `COc1ccc(-c2nn(-c3ccccc3)cc2Cn2cncn2)cc1` [P2], in the series with Mtb H37Rv [2], the MIC90 was 25 µg/mL (≈ 75.4 µM).

For `COc1ccc(-c2nn(-c3ccc(F)cc3)cc2Cn2ccnc2)cc1` [11a, 4-((1H-Imidazol-1-yl)methyl)-1-(4-fluorophenyl)-3-(4-methoxyphenyl)-1H-pyrazole], the melting point is 150 to 152 °C. Also, on Mtb CYP121A1, the equilibrium dissociation constant (Kd) is 65 ± 16.6 µM and the Soret shift was 417 to 421 nm. Further, in the series on Mtb H37Rv [1] (setting [3]), the MIC90 was 4.3 µg/mL and 12.3 µM.

The molecule `COc1ccc(-c2nn(-c3ccc(F)cc3)cc2Cn2cncn2)cc1` [12a, 1-((1-(4-Fluorophenyl)-3-(4-methoxyphenyl)-1H-pyrazol-4-yl)methyl)-1H-1,2,4-triazole] had a melting point of 150 to 152 °C. Besides, the MIC90 in the series with Mtb H37Rv [1] (setting [3]) was 12.8 µg/mL and 36.7 µM.
